Numbered stars: 1 amine (or outer) side, 2 acyl side, 3 side chain; on linkers, the order of the positions; unused ones are H or OH. Bridge positions count the residues as written; N and C are the ends. Square brackets hold non-standard residues; d marks the D form. Peptide text beside a SMILES is read from it. * marks the point of attachment. Ala(imidazo(1,2-a)pyr3yl) = N[C@@H](Cc1cnc2ccccn12)C(=O)O; Trp(1-CH2COOH) = N[C@@H](Cc1cn(CC(=O)O)c2ccccc12)C(=O)O; NMePhe(4-COOH) = CN[C@@H](Cc1ccc(C(=O)O)cc1)C(=O)O; X1 = O=C([C@H](Cc1cccc(C(=O)[*:3])c1)N[*:1])[*:2]; X7 = CN([C@@H](Cc1cccc(C(=O)O)c1)C(=O)[*:2])[*:1]; X2 = O=C([C@H](Cc1cn(CCO)c2ccccc12)N[*:1])[*:2]; Phe(3-COOH) = N[C@@H](Cc1cccc(C(=O)O)c1)C(=O)O; Tyr(2,6-F2) = N[C@@H](Cc1c(F)cc(O)cc1F)C(=O)O; NMePhe(3-Cl) = CN[C@@H](Cc1cccc(Cl)c1)C(=O)O; Trp(1-Me) = Cn1cc(C[C@H](N)C(=O)O)c2ccccc21; 3Pal(6-NH2) = Nc1ccc(C[C@H](N)C(=O)O)cn1; NMeW = CN[C@@H](Cc1c[nH]c2ccccc12)C(=O)O; Lys(N3) = [N-]=[N+]=NCCCC[C@H](N)C(=O)O; NMeY = CN[C@@H](Cc1ccc(O)cc1)C(=O)O; Nva(3-Et) = CCC(CC)[C@H](N)C(=O)O; NMeF = CN[C@@H](Cc1ccccc1)C(=O)O; 4Pal = N[C@@H](Cc1ccncc1)C(=O)O; PEG4 = NCCOCCOCCOCCOCCC(=O)O; Carboxymethyl = O=C(O)C*
Assays:
Type in all cases: binding
[1] = biological target: T1, human transferrin receptor (hTfR) (Homo sapiens, UniProt P02786); assay: Evaluation of pH dependence (ratio of SPR koff or KD at pH 6.0 to pH 7.4); conditions: ratio of koff at pH 6.0 to pH 7.4
T1 sequence (P02786 whole entry): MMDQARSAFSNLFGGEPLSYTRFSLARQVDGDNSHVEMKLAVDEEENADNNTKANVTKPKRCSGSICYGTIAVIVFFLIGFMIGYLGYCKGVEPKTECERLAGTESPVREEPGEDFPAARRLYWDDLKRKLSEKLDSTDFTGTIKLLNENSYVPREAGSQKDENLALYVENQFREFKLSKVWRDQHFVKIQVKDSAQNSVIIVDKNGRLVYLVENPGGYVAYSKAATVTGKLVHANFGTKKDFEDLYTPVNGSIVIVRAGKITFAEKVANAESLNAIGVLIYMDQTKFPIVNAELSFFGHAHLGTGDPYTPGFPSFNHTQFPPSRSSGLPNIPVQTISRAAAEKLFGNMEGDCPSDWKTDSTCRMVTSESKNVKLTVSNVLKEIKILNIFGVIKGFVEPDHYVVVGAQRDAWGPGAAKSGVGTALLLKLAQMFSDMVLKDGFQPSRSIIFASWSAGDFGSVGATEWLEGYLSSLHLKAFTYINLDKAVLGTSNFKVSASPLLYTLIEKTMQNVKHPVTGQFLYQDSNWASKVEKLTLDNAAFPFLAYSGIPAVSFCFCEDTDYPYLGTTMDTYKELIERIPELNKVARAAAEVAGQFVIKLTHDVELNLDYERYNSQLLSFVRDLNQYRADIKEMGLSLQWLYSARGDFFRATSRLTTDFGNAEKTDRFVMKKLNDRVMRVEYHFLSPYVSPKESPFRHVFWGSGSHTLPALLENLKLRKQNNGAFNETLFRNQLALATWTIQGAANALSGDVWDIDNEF
Experimental: The ratio of the calculated koff or KD values under pH 6.0 conditions to those under pH 7.4 conditions was calculated to check pH dependency.

[2] = biological target: T1, human transferrin receptor (hTfR); assay: SPR measurement under pH 7.4 conditions (Biacore T200, CM3 chip, hTfR captured by His Tag antibody); conditions: SPR, pH 7.4; Table 1-3-2-2; read-out: hTfR SPR pH7.4 KD
[3] = biological target: T1, human transferrin receptor (hTfR); assay: SPR measurement under pH 6.0 conditions (Biacore T200, NTA chip, immobilized hTfR); conditions: SPR, pH 6.0; Table 1-3-2-2; read-out: hTfR SPR pH6.0 KD

Row | dependency koff pH6.0/7.4 [1] | Kd [2] | Kd [3] | Compound
1 | 4.38 |  |  | CC[C@H](C)[C@@H]1NC(=O)[C@H](Cc2ccc(OCC(=O)O)cc2)NC(=O)[C@H](Cc2c(F)cc(O)cc2F)NC(=O)[C@H](CC(N)=O)NC(=O)[C@H](Cc2cn(CC(=O)O)c3ccccc23)NC(=O)[C@H](C(C)C)NC(=O)[C@H](Cc2cccc(Cl)c2)N(C)C(=O)[C@H](C(C)C)NC(=O)[C@H](C)NC(=O)CSC[C@@H](C(=O)NCCOCCOCCOCCOCCC(N)=O)NC(=O)[C@H](Cc2ccc(O)cc2)N(C)C(=O)[C@H](Cc2cccc(C(=O)O)c2)NC(=O)[C@H](CCCNC(=N)N)NC(=O)[C@H](CCC(N)=O)NC(=O)[C@H]([C@@H](C)CC)NC1=O [compound 78] ({CH2CO}-AV[NMePhe(3-Cl)]V[Trp(1-CH2COOH)]N[Tyr(2,6-F2)]Y(Carboxymethyl)IIQR[Phe(3-COOH)][NMeY]C[PEG4]-NH2; thioether N-15)
2 | 5.31 |  |  | CC[C@H](C)[C@@H]1NC(=O)[C@H](Cc2ccc(OCC(=O)O)cc2)NC(=O)[C@H](Cc2ccc(O)cc2)NC(=O)[C@H](CC(N)=O)NC(=O)[C@H](Cc2cn(C)c3ccccc23)NC(=O)[C@H](C(C)C)NC(=O)[C@H](Cc2cccc(Cl)c2)N(C)C(=O)[C@H](C(C)C)NC(=O)[C@H](C)NC(=O)CSC[C@@H](C(=O)NCCOCCOCCOCCOCCC(N)=O)NC(=O)[C@H](Cc2ccc(O)cc2)N(C)C(=O)[C@H](Cc2cccc(C(=O)O)c2)NC(=O)[C@H](CCCNC(=N)N)NC(=O)[C@H](CCC(N)=O)NC(=O)[C@H]([C@@H](C)CC)NC1=O [compound 79] ({CH2CO}-AV[NMePhe(3-Cl)]V[Trp(1-Me)]NYY(Carboxymethyl)IIQR[Phe(3-COOH)][NMeY]C[PEG4]-NH2; thioether N-15)
3 | 22.20 |  |  | CC[C@H](C)[C@@H]1NC(=O)[C@H](Cc2ccc(OC)cc2)NC(=O)[C@H](Cc2ccc(O)cc2)NC(=O)[C@H](CC(N)=O)NC(=O)[C@H](Cc2c[nH]c3ccccc23)NC(=O)[C@H](C(C)C)NC(=O)[C@H](Cc2cccc(Cl)c2)N(C)C(=O)[C@H](C(C)C)NC(=O)[C@H](C)NC(=O)CSC[C@@H](C(=O)NCCOCCOCCOCCOCCC(N)=O)NC(=O)[C@H](Cc2ccc(C(=O)O)cc2)N(C)C(=O)[C@H](Cc2cccc(C(=O)O)c2)NC(=O)[C@H](CCCNC(=N)N)NC(=O)[C@H](CCC(N)=O)NC(=O)[C@H]([C@@H](C)CC)NC1=O [compound 80] ({CH2CO}-AV[NMePhe(3-Cl)]VWNYY(Me)IIQR[Phe(3-COOH)][NMePhe(4-COOH)]C[PEG4]-NH2; thioether N-15)
4 | 13.49 |  |  | CC[C@H](C)[C@@H]1NC(=O)[C@H](Cc2ccc(OC)cc2)NC(=O)[C@H](Cc2ccc(O)cc2)NC(=O)[C@H](CC(N)=O)NC(=O)[C@H](Cc2c[nH]c3ccccc23)NC(=O)[C@H](C(C)C)NC(=O)[C@H](Cc2cccc(Cl)c2)N(C)C(=O)[C@H](C(C)C)NC(=O)[C@H](C)NC(=O)CSC[C@@H](C(=O)NCCOCCOCCOCCOCCC(N)=O)NC(=O)[C@H](Cc2cccc(C(=O)O)c2)N(C)C(=O)[C@H](Cc2cccc(C(=O)O)c2)NC(=O)[C@H](CCCNC(=N)N)NC(=O)[C@H](CCC(N)=O)NC(=O)[C@H]([C@@H](C)CC)NC1=O [compound 81] ({CH2CO}-AV[NMePhe(3-Cl)]VWNYY(Me)IIQR[Phe(3-COOH)][X7]C[PEG4]-NH2; thioether N-15)
5 |  | 81.2 nM | 384 nM | CC[C@H](C)[C@@H]1NC(=O)[C@H](Cc2ccc(OC)cc2)NC(=O)[C@H](Cc2ccc(N)nc2)NC(=O)[C@H](CC(N)=O)NC(=O)[C@H](Cc2cnc3ccccn23)NC(=O)[C@H](C(C)C)NC(=O)[C@H](Cc2ccccc2)N(C)C(=O)[C@H](C(C)C)NC(=O)[C@H](C)NC(=O)CSC[C@@H](C(=O)NCC(=O)N[C@@H](CCCCN=[N+]=[N-])C(N)=O)NC(=O)[C@H](Cc2ccc(C(=O)O)cc2)N(C)C(=O)[C@H](Cc2ccncc2)NC(=O)[C@H](CCCNC(=N)N)NC(=O)[C@H](CCCNC(=N)N)NC(=O)[C@H]([C@@H](C)CC)NC1=O [compound 189] ({CH2CO}-AV[NMeF]V[Ala(imidazo(1,2-a)pyr3yl)]N[3Pal(6-NH2)]Y(Me)IIRR[4Pal][NMePhe(4-COOH)]CG[Lys(N3)]-NH2; thioether N-15)
6 |  | 57.1 nM | 177 nM | CC[C@H](C)[C@@H]1NC(=O)[C@H](Cc2ccc(OC)cc2)NC(=O)[C@H](Cc2ccc(N)nc2)NC(=O)[C@H](CC(N)=O)NC(=O)[C@H](Cc2cnc3ccccn23)NC(=O)[C@H](C(C)C)NC(=O)[C@H](Cc2ccccc2)N(C)C(=O)[C@H](C(C)C)NC(=O)[C@H](C)NC(=O)CSC[C@@H](C(=O)NCC(=O)N[C@@H](CCCCN=[N+]=[N-])C(N)=O)NC(=O)[C@H](Cc2ccc(O)cc2)N(C)C(=O)[C@H](Cc2ccncc2)NC(=O)[C@H](CCCNC(=N)N)NC(=O)[C@H](CCCNC(=N)N)NC(=O)[C@H]([C@@H](C)CC)NC1=O [compound 190] ({CH2CO}-AV[NMeF]V[Ala(imidazo(1,2-a)pyr3yl)]N[3Pal(6-NH2)]Y(Me)IIRR[4Pal][NMeY]CG[Lys(N3)]-NH2; thioether N-15)
7 |  | 0.89 nM | 3.82 nM | CC[C@H](C)[C@@H]1NC(=O)[C@H](Cc2ccc(OC)cc2)NC(=O)[C@H](Cc2ccc(N)nc2)NC(=O)[C@H](CC(N)=O)NC(=O)[C@H](Cc2c[nH]c3ccccc23)NC(=O)[C@H](C(C)C)NC(=O)[C@H](Cc2cccc(Cl)c2)N(C)C(=O)[C@H](C(C)C)NC(=O)[C@H](C)NC(=O)CSC[C@@H](C(=O)NCC(=O)NCC(=O)NCC(=O)NCC(=O)N[C@@H](CO)C(=O)N[C@@H](CO)C(=O)N[C@@H](CCCCN=[N+]=[N-])C(N)=O)NC(=O)[C@H](Cc2ccc(O)cc2)N(C)C(=O)[C@H](Cc2ccncc2)NC(=O)[C@H](CCCNC(=N)N)NC(=O)[C@H](CCCNC(=N)N)NC(=O)[C@H]([C@@H](C)CC)NC1=O [compound 191]
8 |  | 1.49 nM | 10.5 nM | CC[C@H](C)[C@@H]1NC(=O)[C@H](Cc2ccc(OC)cc2)NC(=O)[C@H](Cc2ccc(N)nc2)NC(=O)[C@H](CC(N)=O)NC(=O)[C@H](Cc2c[nH]c3ncccc23)NC(=O)[C@H](C(C)C)NC(=O)[C@H](Cc2cccc(Cl)c2)N(C)C(=O)[C@H](C(C)C)NC(=O)[C@H](C)NC(=O)CSC[C@@H](C(=O)NCC(=O)NCC(=O)NCC(=O)NCC(=O)N[C@@H](CO)C(=O)N[C@@H](CO)C(=O)N[C@@H](CCCCN=[N+]=[N-])C(N)=O)NC(=O)[C@H](Cc2ccc(O)cc2)N(C)C(=O)[C@H](Cc2ccncc2)NC(=O)[C@H](CCCCN2CCOCC2)NC(=O)[C@H](CCCCN2CCOCC2)NC(=O)[C@H]([C@@H](C)CC)NC1=O [compound 192]
9 |  | 4.62 nM | 14.9 nM | CCC(CC)[C@@H]1NC(=O)[C@H](Cc2ccc(O)cc2)NC(=O)[C@H](Cc2ccc(O)cc2)NC(=O)[C@H](CC(N)=O)NC(=O)[C@H](Cc2c[nH]c3ccccc23)N(C)C(=O)[C@H](C(C)C)NC(=O)[C@H](Cc2ccccc2)N(C)C(=O)[C@H](C(C)C)NC(=O)[C@H](C)NC(=O)CSC[C@@H](C(=O)NCC(=O)N[C@@H](CCCCN=[N+]=[N-])C(N)=O)NC(=O)[C@H](Cc2ccc(C(=O)O)cc2)N(C)C(=O)[C@H](Cc2cccc(C(=O)NCCOCCOCCOCCOCCC(=O)O)c2)NC(=O)[C@H](CCCNC(=N)N)NC(=O)[C@H](CCCCN)NC(=O)[C@H]([C@@H](C)CC)NC1=O [compound 194] ({CH2CO}-AV[NMeF]V[NMeW]NYY[Nva(3-Et)]IKR[X1](PEG4)[NMePhe(4-COOH)]CG[Lys(N3)]-NH2; thioether N-15)
10 |  | 2.94 nM | 13.9 nM | CC[C@H](C)[C@@H]1NC(=O)[C@H](Cc2ccc(O)cc2)NC(=O)[C@H](Cc2ccc(N)nc2)NC(=O)[C@H](CC(N)=O)NC(=O)[C@H](Cc2c[nH]c3ccccc23)N(C)C(=O)[C@H](C(C)C)NC(=O)[C@H](Cc2ccccc2)N(C)C(=O)[C@H](C(C)C)NC(=O)[C@H](C)NC(=O)CSC[C@@H](C(=O)NCC(=O)N[C@@H](CCCCN=[N+]=[N-])C(N)=O)NC(=O)[C@H](Cc2ccc(C(=O)O)cc2)N(C)C(=O)[C@H](Cc2ccc(O)cc2)NC(=O)[C@H](CCCNC(=N)N)NC(=O)[C@H](CCCCN)NC(=O)[C@H]([C@@H](C)CC)NC1=O [compound 196] ({CH2CO}-AV[NMeF]V[NMeW]N[3Pal(6-NH2)]YIIKRY[NMePhe(4-COOH)]CG[Lys(N3)]-NH2; thioether N-15)
11 |  | 5.09 nM | 43.9 nM | CC[C@H](C)[C@@H]1NC(=O)[C@H](Cc2ccc(OC)cc2)NC(=O)[C@H](Cc2ccc(N)nc2)NC(=O)[C@H](CC(N)=O)NC(=O)[C@H](Cc2cnc3ccccn23)NC(=O)[C@H](C(C)C)NC(=O)[C@H](Cc2cccc(Cl)c2)N(C)C(=O)[C@H](C(C)C)NC(=O)[C@H](C)NC(=O)CSC[C@@H](C(=O)NCC(=O)N[C@@H](CCCCN=[N+]=[N-])C(N)=O)NC(=O)[C@H](Cc2ccc(O)cc2)N(C)C(=O)[C@H](Cc2ccncc2)NC(=O)[C@H](CCCNC(=N)N)NC(=O)[C@H](CCCNC(=N)N)NC(=O)[C@H]([C@@H](C)CC)NC1=O [compound 197] ({CH2CO}-AV[NMePhe(3-Cl)]V[Ala(imidazo(1,2-a)pyr3yl)]N[3Pal(6-NH2)]Y(Me)IIRR[4Pal][NMeY]CG[Lys(N3)]-NH2; thioether N-15)

Row | Compound | dependency koff pH6.0/7.4 [1] | Kd [2] | Kd [3]
12 | CC[C@H](C)[C@@H]1NC(=O)[C@H](Cc2ccc(OCC(=O)O)cc2)NC(=O)[C@H](Cc2ccc(O)cc2)NC(=O)[C@H](CC(N)=O)NC(=O)[C@H](Cc2cn(CCO)c3ccccc23)NC(=O)[C@H](C(C)C)NC(=O)[C@H](Cc2cccc(Cl)c2)N(C)C(=O)[C@H]([C@@H](C)O)NC(=O)[C@H](C)NC(=O)CSC[C@@H](C(=O)NCCOCCOCCOCCOCCC(N)=O)NC(=O)[C@H](Cc2ccc(O)cc2)N(C)C(=O)[C@H](Cc2cccc(C(=O)O)c2)NC(=O)[C@H](CCCNC(=N)N)NC(=O)[C@H](CCC(N)=O)NC(=O)[C@H]([C@@H](C)CC)NC1=O [compound 77] ({CH2CO}-AT[NMePhe(3-Cl)]V[X2]NYY(Carboxymethyl)IIQR[Phe(3-COOH)][NMeY]C[PEG4]-NH2; thioether N-15) | 4.46 |  | 
